Test results as given in ChEMBL document CHEMBL1201862, “PubChem BioAssay data set” (2004).
Active and inactive are the calls of the source.

Legend:
[1] = molecular target: T1, Rac GTPase-activating protein 1 (Homo sapiens, UniProt Q9H0H5); experiment: blockers of MgcRacGAP-driven Rac1 GTP hydrolysis – biochemical, ADP Hunter fluorescence, primary and confirmatory, confirmation (AID 624330); type: functional
T1 sequence (Q9H0H5 whole entry): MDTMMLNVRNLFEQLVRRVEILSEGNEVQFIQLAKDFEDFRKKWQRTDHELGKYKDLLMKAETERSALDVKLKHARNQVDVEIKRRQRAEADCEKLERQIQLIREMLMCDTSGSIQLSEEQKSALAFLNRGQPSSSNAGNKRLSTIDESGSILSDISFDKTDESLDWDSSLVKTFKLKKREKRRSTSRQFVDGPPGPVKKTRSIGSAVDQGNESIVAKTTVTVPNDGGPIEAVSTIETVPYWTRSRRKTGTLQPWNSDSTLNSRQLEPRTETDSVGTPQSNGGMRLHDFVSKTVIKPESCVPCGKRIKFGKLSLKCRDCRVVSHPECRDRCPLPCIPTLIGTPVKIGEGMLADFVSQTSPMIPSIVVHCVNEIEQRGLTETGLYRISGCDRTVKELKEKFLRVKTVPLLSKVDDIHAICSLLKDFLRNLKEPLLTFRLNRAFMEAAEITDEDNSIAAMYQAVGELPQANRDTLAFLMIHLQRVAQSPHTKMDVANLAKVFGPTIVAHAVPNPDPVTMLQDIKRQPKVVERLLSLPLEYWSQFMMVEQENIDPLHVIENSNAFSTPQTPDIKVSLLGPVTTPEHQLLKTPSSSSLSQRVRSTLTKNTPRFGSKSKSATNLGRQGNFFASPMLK

[2] = molecular target: T2, Corticotropin-releasing factor receptor 2/Corticotropin-releasing factor-binding protein (Homo sapiens, UniProt P24387+Q13324); experiment: activators of CRF receptor 2 with binding protein – uHTS hits, confirmation (AID 602473); type: functional; conditions: read-out: EC50_Mean
T2 sequence (Q13324 whole entry): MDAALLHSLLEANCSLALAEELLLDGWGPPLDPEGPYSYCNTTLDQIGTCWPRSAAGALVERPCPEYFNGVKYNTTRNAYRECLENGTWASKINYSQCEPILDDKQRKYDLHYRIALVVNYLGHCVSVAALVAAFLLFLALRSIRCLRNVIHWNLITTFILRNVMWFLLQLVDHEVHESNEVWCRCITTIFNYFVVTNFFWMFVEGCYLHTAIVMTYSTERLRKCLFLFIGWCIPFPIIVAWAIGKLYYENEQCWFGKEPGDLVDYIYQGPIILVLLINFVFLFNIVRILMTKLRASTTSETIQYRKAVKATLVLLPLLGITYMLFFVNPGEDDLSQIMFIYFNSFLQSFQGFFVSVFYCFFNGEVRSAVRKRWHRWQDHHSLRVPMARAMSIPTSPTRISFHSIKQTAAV
T2 sequence (P24387 whole entry): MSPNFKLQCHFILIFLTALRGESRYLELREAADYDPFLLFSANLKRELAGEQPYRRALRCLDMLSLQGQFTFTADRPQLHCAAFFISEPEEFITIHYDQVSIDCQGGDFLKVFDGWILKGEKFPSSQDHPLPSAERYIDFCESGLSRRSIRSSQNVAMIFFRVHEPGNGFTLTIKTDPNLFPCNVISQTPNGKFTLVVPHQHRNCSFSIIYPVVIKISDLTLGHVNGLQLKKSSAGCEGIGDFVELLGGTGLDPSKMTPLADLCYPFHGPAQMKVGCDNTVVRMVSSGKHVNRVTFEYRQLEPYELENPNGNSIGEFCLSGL

[3] = molecular target: Large T antigen (Simian virus 40, UniProt P03070); type: functional, Betapolyomavirus macacae;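 further: Confirmatory-stage PubChem screen for compounds that inhibit SV40 T antigen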
Large T antigen, sequence (P03070 whole entry): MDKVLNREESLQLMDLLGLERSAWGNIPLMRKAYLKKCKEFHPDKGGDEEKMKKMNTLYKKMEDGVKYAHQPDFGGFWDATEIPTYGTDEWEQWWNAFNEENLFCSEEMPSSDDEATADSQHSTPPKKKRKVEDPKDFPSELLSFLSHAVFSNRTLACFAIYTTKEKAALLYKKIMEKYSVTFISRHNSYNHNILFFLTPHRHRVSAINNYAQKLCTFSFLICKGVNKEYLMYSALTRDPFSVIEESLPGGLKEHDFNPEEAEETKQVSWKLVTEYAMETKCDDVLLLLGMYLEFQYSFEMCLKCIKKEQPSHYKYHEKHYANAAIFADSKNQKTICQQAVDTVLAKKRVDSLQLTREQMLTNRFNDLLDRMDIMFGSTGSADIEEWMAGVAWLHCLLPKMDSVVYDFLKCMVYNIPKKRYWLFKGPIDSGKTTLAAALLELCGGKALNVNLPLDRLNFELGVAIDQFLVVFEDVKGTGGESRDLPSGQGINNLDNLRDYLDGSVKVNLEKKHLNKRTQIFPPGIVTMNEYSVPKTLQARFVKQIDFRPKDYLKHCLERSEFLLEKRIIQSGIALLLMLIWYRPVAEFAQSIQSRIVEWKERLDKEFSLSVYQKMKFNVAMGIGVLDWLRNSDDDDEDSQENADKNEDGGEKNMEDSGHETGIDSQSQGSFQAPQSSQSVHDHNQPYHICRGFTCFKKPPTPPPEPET

[4] = molecular target: T3, Replicative DNA helicase DnaB (Mycobacterium tuberculosis, UniProt P9WMR3); experiment: DnaB intein splicing inhibitors, dose response, biochemical, cell-free fluorescence (AID 449749); type: functional
T3 sequence (P9WMR3 whole entry): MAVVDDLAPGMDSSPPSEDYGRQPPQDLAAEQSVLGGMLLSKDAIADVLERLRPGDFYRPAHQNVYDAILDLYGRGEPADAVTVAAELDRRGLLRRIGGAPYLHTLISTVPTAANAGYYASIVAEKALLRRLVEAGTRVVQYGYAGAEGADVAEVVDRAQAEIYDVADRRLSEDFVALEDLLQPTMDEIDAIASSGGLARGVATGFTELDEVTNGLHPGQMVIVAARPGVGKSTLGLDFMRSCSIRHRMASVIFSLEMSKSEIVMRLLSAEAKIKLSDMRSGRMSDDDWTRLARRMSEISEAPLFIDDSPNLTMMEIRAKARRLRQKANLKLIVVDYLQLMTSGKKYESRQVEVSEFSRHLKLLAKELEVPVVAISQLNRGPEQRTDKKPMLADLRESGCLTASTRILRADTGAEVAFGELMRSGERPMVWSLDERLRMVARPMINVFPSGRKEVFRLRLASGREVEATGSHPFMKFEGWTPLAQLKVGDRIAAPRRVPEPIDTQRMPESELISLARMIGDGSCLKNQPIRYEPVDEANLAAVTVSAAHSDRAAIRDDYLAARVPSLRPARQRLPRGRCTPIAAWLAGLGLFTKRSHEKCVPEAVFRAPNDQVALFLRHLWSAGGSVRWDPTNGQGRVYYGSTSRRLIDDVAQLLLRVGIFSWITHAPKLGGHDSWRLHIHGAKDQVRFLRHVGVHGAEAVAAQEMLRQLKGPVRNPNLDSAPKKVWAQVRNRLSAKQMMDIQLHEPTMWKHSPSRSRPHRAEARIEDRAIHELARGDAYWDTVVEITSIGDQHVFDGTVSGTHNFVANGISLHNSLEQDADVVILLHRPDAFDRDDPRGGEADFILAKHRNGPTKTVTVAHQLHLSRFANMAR

[5] = molecular target: T4, Protein RecA (Mycobacterium tuberculosis, UniProt P9WHJ3); experiment: Fluorescence Cell-Free Homogeneous Dose Retest to Identify Inhibitors of RecA-Intein Splicing Activity. [Related pubchem assays (depositor defined):AID2097, AID2223, AID489010, AID492950]; type: functional
T4 sequence (P9WHJ3 whole entry): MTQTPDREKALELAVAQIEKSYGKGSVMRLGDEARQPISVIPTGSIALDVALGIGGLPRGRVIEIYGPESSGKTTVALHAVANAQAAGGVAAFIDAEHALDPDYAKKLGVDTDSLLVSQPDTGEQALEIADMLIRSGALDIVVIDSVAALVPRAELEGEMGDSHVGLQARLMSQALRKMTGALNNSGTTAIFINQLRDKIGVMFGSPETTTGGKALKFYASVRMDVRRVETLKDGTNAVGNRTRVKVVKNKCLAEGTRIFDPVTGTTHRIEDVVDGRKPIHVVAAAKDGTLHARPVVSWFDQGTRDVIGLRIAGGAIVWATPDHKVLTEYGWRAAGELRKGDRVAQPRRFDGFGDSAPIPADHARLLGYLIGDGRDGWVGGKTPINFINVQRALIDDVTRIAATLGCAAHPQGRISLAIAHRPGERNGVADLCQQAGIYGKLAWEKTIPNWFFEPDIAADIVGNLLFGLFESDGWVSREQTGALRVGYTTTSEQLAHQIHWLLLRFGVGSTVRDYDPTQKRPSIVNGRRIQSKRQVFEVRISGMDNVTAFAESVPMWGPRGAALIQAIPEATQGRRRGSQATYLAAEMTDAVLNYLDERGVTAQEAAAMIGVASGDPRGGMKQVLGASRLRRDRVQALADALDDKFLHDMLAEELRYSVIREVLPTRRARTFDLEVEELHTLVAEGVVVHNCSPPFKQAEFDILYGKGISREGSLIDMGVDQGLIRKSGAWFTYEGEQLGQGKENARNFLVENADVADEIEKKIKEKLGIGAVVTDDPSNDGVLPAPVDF

[6] = molecular target: T5, Protein skinhead-1 (Caenorhabditis elegans, UniProt P34707); type: functional
T5 sequence (P34707 whole entry): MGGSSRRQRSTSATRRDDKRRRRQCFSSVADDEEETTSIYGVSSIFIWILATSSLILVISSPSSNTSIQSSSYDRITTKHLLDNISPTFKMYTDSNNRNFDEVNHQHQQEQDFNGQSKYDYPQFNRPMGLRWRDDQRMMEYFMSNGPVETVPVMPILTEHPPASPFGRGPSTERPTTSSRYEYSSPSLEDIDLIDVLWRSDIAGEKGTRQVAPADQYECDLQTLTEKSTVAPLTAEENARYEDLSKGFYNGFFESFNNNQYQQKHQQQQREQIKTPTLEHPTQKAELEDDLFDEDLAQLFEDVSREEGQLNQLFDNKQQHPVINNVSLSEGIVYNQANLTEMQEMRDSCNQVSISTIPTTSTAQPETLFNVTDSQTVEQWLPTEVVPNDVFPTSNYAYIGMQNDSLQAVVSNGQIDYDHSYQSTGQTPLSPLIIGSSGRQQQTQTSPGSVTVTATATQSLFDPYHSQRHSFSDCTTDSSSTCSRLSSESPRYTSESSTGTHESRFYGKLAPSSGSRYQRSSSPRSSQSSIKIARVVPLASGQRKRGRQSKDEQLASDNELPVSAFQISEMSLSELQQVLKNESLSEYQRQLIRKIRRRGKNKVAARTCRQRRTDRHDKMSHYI

[7] = molecular target: T6, Heat shock factor protein 1 (Mus musculus, UniProt P38532); experiment: enhancement of HSF1-driven luciferase signal – cell-based, NIH3T3, luminescence, dose retest, confirmation (AID 435004); type: functional;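 further: stress induced by proteasome inhibitor MG132 added 30 min after compound; luciferase reporter driven by HSF1 response element in NIH3T3 cells; actives raise luminescence as potentiators of the MG132 stress response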
T6 sequence (P38532 whole entry): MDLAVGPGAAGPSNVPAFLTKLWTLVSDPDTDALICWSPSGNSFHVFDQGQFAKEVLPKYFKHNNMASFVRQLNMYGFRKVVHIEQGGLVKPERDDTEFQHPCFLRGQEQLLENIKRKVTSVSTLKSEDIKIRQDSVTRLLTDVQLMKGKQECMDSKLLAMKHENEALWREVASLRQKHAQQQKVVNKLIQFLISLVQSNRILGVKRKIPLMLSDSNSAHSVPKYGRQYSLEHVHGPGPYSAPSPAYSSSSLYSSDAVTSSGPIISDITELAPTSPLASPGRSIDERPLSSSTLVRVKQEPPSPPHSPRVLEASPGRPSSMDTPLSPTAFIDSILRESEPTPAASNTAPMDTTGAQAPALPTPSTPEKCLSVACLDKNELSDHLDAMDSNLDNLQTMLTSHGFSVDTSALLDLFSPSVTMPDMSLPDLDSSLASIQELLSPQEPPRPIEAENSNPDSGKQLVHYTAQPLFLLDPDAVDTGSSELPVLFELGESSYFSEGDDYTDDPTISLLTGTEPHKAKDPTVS

[8] = molecular target: FAD-linked sulfhydryl oxidase ALR (Homo sapiens, UniProt P55789); experiment: ALR-catalysed DTT oxidation blockers – biochemical, H2O2 detection, luminescence, cherry-pick, dose response (AID 493248)
FAD-linked sulfhydryl oxidase ALR, sequence (P55789 whole entry): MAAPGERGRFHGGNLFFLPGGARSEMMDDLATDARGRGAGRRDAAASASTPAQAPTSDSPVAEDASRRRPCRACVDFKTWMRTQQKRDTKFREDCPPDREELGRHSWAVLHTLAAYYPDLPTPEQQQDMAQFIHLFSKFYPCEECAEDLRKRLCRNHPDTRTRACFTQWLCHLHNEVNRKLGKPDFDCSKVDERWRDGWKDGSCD

Row | Structure (SMILES) | IC50 [1] | AC50 [4] | EC50 [5] | further results
1 | COc1cc(/C=N/NC(=O)c2nc(C)cc(C)n2)ccc1O | 35.3 µM (active) |  |  | EC50 [2]: > 53 µM (inactive); IC50 [3]: 39.5 µM (active)
2 | COc1ccc(OC)c(C(c2c(C)n[nH]c2O)c2c(C)n[nH]c2O)c1 |  | 0.296 µM (active) | 0.211 µM (active) | 
3 | CC(NS(=O)(=O)c1ccc(Cl)cc1)C(=O)OCC(=O)Nc1ccc(N(C)C)cc1 (centres undefined) | 65.1 µM (active) |  |  | 
4 | FC(F)(F)c1ccc(-c2csc(-c3ccno3)n2)cc1 |  |  |  | IC50 [6]: 23.1 µM (active)
5 | CN(C)c1cccc(O)c1 |  |  |  | IC50 [6]: > 100 µM (inactive)
6 | COC(=O)CCSc1cc(NCCOC(C)=O)c([N+](=O)[O-])c2nonc12 |  | 37.5 µM (active) | 4.63 µM (active) | 
7 | CN(C)c1ccc(NC(=O)c2ccncc2)c2ccccc12 |  | 66.5 µM (active) | 45.4 µM (active) | 
8 | COc1ccc(NC2CCCN(C(=O)c3ccc(C)c(N4CCNC4=O)c3)C2)cc1 (centres undefined) | 129 µM (active) |  |  | 
9 | O=C(c1c[nH]c(C(=O)C(Cl)(Cl)Cl)c1)c1ccccc1F |  | 12.6 µM (active) | 7.39 µM (active) | 
10 | CCOC(=O)c1sc(NC(=O)CN2CC(C)OC(C)C2)nc1C (centres undefined) |  |  |  | IC50 [6]: > 100 µM (inactive)
11 | C#Cc1ccc2c(c1)COc1c3ccccc3nn1-2 |  |  |  | IC50 [6]: > 100 µM (inactive)
12 | NC(CSS(=O)(=O)O)=NCCC12CC3CC(CC(O)(C3)C1)C2 | 142 µM (active) |  |  | 
13 | COc1ccc(CN2CCN(C(=O)CC(C)C)CC2)cc1OC | 161 µM (active) |  |  | 
14 | O=C(N/N=C/c1ccc(N2CCOCC2)s1)c1ccc(O)cc1 | 23.5 µM (active) |  |  | 
15 | Cc1ccc2sc(NC(=O)c3cccc(N4C(=O)CCC4=O)c3)nc2c1C |  |  |  | IC50 [6]: > 100 µM (inactive)
16 | CCOCCn1c(COc2ccccc2)nc2ccccc21 |  |  |  | IC50 [6]: > 100 µM (inactive)
17 | Cc1ccc(C/N=C/c2[nH]c3ccc(Br)c(Cl)c3c2O)cc1 |  | > 380 µM (inactive) | 1.43 µM (active) | 
18 | Cc1nn(-c2cccc(Cl)c2)c2c1C(c1ccncc1)C(C#N)=C(N)O2 (centres undefined) |  | 9.1 µM (active) | 7.71 µM (active) | EC50 [7]: > 260 µM (inactive)
19 | COc1ccc(CN2C(=O)NC(=O)/C(=C\NNC(=O)c3ccccc3O)C2=O)cc1 |  | 2.69 µM (active) | 32.2 µM (active) | 
20 | NSc1nc(N)c2nc(-c3ccccc3)c(-c3ccccc3)nc2n1 | 99.2 µM (active) |  |  | 
21 | Cc1c(-c2csc(N)n2)c2ccccc2n1C |  |  |  | IC50 [6]: > 100 µM (inactive)
22 | COc1cc(/C=N/NC(=O)CCn2nnc3ccccc32)ccc1O | 58.7 µM (active) |  |  | AC50 [8]: 0.236 µM (active); IC50 [3]: 8.58 µM (active)
23 | CC(C)(C)NC(=O)C(c1cccs1)N(CC1CCCO1)C(=O)c1ccc(-c2ccccc2)[nH]1 (centres undefined) |  | 37.9 µM (active) | 169 µM (active) | 
24 | O=C(NC1C(=O)NNC1c1ccccc1)c1ccccc1 (centres undefined) |  | 8.8 µM (active) | 4.83 µM (active) | EC50 [7]: 246 µM (active)
